Assay [1] deals with COX-2. Conditions: reported, specificity for COX-2 over COX-1; cited from earlier work.
Assay [2] has as its target T1, COX-2 (Mus musculus, UniProt Q05769).
T1 construct: LPS, which was used to induce the expression of COX-2 in the RAW 264.7 cells; host or cells: RAW 264.7
T1 sequence (Q05769 18-604): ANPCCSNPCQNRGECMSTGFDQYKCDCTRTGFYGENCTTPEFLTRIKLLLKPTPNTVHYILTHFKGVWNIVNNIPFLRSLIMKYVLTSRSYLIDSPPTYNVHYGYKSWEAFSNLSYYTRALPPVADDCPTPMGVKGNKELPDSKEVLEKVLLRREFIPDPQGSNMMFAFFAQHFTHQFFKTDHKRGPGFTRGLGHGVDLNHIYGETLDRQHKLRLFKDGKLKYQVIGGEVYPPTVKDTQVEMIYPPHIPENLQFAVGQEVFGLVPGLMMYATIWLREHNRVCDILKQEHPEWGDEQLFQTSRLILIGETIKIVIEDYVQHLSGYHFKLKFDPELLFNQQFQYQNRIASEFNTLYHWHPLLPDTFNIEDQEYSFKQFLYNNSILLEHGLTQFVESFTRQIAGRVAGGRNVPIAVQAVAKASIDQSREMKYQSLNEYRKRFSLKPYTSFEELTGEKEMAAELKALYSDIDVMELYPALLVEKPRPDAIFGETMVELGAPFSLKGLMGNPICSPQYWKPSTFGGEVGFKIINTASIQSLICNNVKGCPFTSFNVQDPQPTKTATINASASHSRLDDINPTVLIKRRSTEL
Nature of the assay: cell-based. Format: cell-based.
Protocol: On day one of the experiment, the log phase 264.7 cells were plated at 8×10^4 cells per well in 0.2 mL growth medium per well in a 96-well tissue culture plate. After 6 to 8 hours post plating, 100 μL of growth medium from each well was removed and replaced with 100 μL fresh medium. […] It was mixed until dissolved and stored at 4° C. Immediately before use, it was thawed at room temperature or in a 37° C. water bath. A new solution was prepared every 60 days.
On day two of the experiment, the test materials were prepared as 1000× stock in DMSO. For example, if the final concentration of the test material was to be 10 μg/mL, a 10 mg/mL stock was prepared by dissolving 10 mg of the test material in 1 mL of DMSO. Fresh test materials were prepared on day 2 of the experiment. In 1.7 mL microfuge tubes, 1 mL DMEM without FBS was added to obtain test concentrations of 0.05, 0.10, 0.5, and 1.0 μg/mL. 2 μL of the 1000×DMSO stock of the test material was added to the 1 mL of medium without FBS. The tube contained the final concentration of the test material was concentrated 2-fold. The tube was placed in incubator for 10 minutes to equilibrate.
One-hundred mL of medium was removed from each well of the cell plates prepared on day one. One-hundred mL of equilibrated 2× final concentration the test compounds were added to cells and incubated for 90 minutes. […]

The source of these data is patent publication US6979470B2 (priority 2001, dated 2005).

In the case of `CC(=O)Oc1ccccc1C(=O)O` [aspirin], in the assay on COX-2 [1], the COX-2 specificity is on record as 0.6. As usually defined, the IC50 is the concentration at which inhibition is half-maximal. On to `C=C1CC[C@@H]2[C@](C)(CO)[C@H](O)CC[C@@]2(C)[C@@H]1C/C=C1/C(=O)OC[C@H]1O` [Andrographolide], for which the “SPECIFICIY COX-1/COX-2” value on COX-2 [2] (COX-1 IC50 (enzyme) / COX-2 IC50 (RAW 264.7)) is reported as 5.2. At COX-2 [2] (second compound alone, PGE2 production by COX-2, RAW 264.7 cells, 24 h LPS), this compound gave an IC50 of 762 µM.
